This assay addresses dFASN (FASN1), recombinant full-length (Drosophila melanogaster, UniProt B7Z001). The assay can be described thus: NADPH oxidation FASN activity assay, Michaelis-Menten fit. It is filed as biochemical. To be noted: 240 µM NADPH, 58 µM malonyl-CoA fixed.

Chain of dFASN (FASN1), recombinant full-length (B7Z001 1-2540): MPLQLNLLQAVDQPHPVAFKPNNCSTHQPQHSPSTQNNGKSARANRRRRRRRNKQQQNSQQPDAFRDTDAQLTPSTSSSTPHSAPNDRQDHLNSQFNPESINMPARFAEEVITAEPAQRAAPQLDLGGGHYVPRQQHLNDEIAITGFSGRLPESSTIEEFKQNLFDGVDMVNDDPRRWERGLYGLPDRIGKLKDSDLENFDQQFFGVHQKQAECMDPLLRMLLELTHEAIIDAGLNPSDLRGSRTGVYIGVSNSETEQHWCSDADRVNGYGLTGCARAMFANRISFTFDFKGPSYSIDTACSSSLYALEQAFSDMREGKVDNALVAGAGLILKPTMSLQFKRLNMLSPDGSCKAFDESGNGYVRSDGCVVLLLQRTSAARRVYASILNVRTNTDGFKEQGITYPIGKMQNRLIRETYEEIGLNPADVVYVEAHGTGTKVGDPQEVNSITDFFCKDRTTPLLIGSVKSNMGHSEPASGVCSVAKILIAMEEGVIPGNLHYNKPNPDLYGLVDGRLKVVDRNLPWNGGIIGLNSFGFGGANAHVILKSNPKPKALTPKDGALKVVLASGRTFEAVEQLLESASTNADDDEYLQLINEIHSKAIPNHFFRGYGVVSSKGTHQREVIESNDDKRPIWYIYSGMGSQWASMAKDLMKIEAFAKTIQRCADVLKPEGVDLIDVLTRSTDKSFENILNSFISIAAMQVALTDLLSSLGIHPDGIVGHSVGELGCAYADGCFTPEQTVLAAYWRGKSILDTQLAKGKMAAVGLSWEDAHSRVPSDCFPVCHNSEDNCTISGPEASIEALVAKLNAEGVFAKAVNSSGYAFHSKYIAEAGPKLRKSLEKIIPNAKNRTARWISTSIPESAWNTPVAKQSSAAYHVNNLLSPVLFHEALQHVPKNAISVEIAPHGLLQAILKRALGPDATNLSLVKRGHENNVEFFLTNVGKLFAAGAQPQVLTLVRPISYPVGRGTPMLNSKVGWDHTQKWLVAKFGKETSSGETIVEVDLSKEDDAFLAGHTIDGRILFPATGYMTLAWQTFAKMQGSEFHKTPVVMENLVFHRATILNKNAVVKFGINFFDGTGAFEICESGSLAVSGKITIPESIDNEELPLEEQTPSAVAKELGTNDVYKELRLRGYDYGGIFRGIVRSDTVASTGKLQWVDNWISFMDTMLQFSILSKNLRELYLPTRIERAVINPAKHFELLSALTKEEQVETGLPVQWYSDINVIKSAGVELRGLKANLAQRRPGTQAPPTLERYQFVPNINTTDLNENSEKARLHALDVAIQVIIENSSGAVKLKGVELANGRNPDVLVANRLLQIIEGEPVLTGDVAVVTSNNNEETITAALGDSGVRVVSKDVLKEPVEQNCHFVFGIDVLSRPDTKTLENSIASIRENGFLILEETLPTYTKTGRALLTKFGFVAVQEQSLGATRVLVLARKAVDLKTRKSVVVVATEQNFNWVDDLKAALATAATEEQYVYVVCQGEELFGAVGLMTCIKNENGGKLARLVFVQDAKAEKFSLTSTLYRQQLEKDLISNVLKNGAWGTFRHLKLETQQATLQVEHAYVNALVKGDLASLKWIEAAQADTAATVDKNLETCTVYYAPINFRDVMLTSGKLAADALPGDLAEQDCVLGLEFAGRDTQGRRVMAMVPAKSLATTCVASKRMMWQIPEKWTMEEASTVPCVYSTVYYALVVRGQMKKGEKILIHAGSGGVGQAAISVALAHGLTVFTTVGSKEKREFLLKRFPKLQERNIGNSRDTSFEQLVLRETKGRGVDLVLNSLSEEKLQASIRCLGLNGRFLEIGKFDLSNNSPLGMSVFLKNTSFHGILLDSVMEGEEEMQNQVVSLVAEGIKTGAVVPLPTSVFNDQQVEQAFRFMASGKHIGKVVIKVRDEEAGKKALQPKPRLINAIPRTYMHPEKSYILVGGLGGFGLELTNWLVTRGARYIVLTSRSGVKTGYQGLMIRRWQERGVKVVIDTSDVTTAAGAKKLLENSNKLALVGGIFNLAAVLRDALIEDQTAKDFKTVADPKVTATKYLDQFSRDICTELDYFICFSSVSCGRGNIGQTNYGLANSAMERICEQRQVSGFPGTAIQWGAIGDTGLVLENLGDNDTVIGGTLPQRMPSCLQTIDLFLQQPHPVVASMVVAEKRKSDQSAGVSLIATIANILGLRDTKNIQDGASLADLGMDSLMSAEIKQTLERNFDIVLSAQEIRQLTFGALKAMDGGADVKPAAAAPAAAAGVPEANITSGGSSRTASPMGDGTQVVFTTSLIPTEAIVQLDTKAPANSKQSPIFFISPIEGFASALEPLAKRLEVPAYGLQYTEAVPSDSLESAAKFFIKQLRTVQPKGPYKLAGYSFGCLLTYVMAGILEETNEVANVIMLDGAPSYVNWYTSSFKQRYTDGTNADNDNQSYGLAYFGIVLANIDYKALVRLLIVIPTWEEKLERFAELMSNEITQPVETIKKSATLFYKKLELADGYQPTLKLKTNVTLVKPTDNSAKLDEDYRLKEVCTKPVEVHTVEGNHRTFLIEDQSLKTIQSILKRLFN

Consider `CC(=O)SCCNC(=O)CCNC(=O)[C@H](O)C(C)(C)COP(=O)(O)OP(=O)(O)OC[C@H]1O[C@@H](n2cnc3c(N)ncnc32)[C@H](O)[C@@H]1OP(=O)(O)O` [acetyl-CoA], for which the Km entry was “Steady-state kinetics over AcCoA was also evaluated”.

The values above are taken from publication PMC9894184 (Proceedings of the National Academy of Sciences of the …, 2022).
